Test results: a melting point compilation (Tetko et al.; mined from patent text by program, amines drawn as free bases though some values may be those of a salt)

Row | melting point | Structure (SMILES)
1 | 103 to 104 °C | CCOC(=O)C=Cc1ccc(OC(C)C)c(OC)c1
2 | 195 to 196 °C | O=C(Cc1c(-c2ccccc2)c2cc(CSc3ccccn3)c(Cl)cc2oc1=O)Nc1ccc(F)cc1C(F)(F)F
3 | 75 to 77 °C | CCCC(=O)c1cnc2c(OCCOC)cccc2c1Nc1ccccc1C
4 | 31 to 32 °C | ClCc1coc(Cc2ccccc2)n1
5 | 166 to 169 °C | COc1ccc(CNc2cc3c(Nc4ccc(Br)c(Br)c4)ncnc3cn2)cc1
6 | 196 to 197 °C | Cc1cccc(C)c1NC(N)=NOC1CCCCO1 (stereo not given)
7 | 222 to 223 °C | Cc1ccc(C(=O)c2c(OCc3ccccc3)cc(C(=O)O)cc2[N+](=O)[O-])cc1
8 | 193 to 195 °C | CC(C)c1ccccc1Nc1nc(N)nc2c1-c1ccccc1C2
9 | 106 to 107 °C | COc1ccc(OC)c(C(O)CNC(=O)CN)c1 (stereo not given)
10 | 156 to 158 °C | C#CCN1C(=O)COc2cc(F)c(N(C(=O)CCl)C(=O)C3=C(C(=O)OC)CCCC3)cc21
11 | 180 to 181 °C | CC[C@@H]1O[C@](C#CC2CC2)(C(F)(F)F)c2c(ccc(F)c2F)NC1=O (relative stereo)
12 | 141 to 142 °C | COc1cc(NC(=O)CC23CC4CC(CC(C4)C2)C3)c(C)c([N+](=O)[O-])c1
13 | 106 to 108 °C | N#CCc1ncccc1[N+](=O)[O-]
14 | 152 to 153 °C | C=CCn1c(=O)n(-c2ccc3c(c2)OCO3)c2ncc([N+](=O)[O-])cc21
15 | 199 to 203 °C | Cc1ncc(CN2CC=C(/C=C/c3ccccc3)CC2)c(N)n1
16 | > 300 °C | Nc1nc2c(ncn2C2CC(O)C(CO)O2)c(=O)[nH]1 (stereo not given)
17 | 141 to 143 °C | ON=Cc1cccc(OCCN2CCC(Cc3ccccc3)CC2)c1
18 | 194 to 197 °C | C[C@H](Nc1ncnc2[nH]cnc12)c1oc2ccc(F)cc2c(=O)c1-c1cccc(F)c1
19 | 158 to 159 °C | O=S(=O)(c1ccccc1)c1cc[nH]c1-c1ccc(Cl)cc1

Row | melting point | Structure (SMILES)
20 | 184 to 185 °C | CCOC(=O)c1c(CCc2c[nH]nn2)nc2sc3c(c2c1-c1ccc(OC)c(OC)c1)CCN(C(=O)c1ccccc1)C3
21 | 115 °C | COc1cccc(NC(=O)C(F)(F)F)c1
22 | 177 to 180 °C | O=c1cc(-c2ccc(O)cc2)oc2ccccc12
23 | 184 °C | COC(=O)c1cc2cc(C(=O)c3cccc(CC#N)c3)sc2s1
24 | 86 to 88 °C | CS(=O)(=O)Nc1ccc(OCCCc2ccc(OCCCCOc3ccccc3)cc2)c(C(=O)O)c1
25 | 113 °C | CCOC(=O)c1c(-c2cccc(C)c2)oc(Cl)c(Cl)c1=O
26 | 208 to 211 °C | Cc1nc(N2CCNCC2)nc(N2CCS(=O)(=O)CC2)c1[N+](=O)[O-]
27 | 208 to 209 °C | Cc1ccc(C(NC(c2ccccc2)c2ccccc2)P(O)O)cc1 (stereo not given)
28 | 246 to 248 °C | O=C1CC2CC(n3c(=O)[nH]c4ccccc43)CC2C1 (stereo not given)
29 | 225 to 227 °C | O=C1C(=NO)SCCN1Cc1ccccc1
30 | 207 to 208 °C | CC(C)CC1(C(CCN2C(=O)c3cc(Cl)c(Cl)cc3C2=O)C(=O)NO)CCN(CCc2ccccc2)C1=O (stereo not given)
31 | 52 to 54 °C | CCCCCCCCCCCC(=O)CO
32 | 279 to 282 °C | O=C(Nc1cccc(CC(F)(F)F)c1)Nc1ccc2c(c1)COC2=O
33 | 102 to 110 °C | CCN(CC)CCCOc1ccc(C(=O)c2c(-c3ccc(OC)cc3)oc3ccccc23)cc1
34 | 130 to 131 °C | Cc1cc(N2CCN(Cc3ccccc3)C2=O)sc1C(=O)NCc1cccnc1
35 | 116 to 118 °C | c1ccc(-c2ccc(-c3cccs3)s2)cc1
36 | 136 °C | O=C(Nc1cccc2ccccc12)c1ccn2c1CSC2c1cccnc1 (stereo not given)
37 | 208 to 209 °C | c1ccc(Nc2nc[nH]c3ncc(-c4ccccc4)c2-3)cc1
38 | 160 to 162 °C | N#Cc1cc(N2C(=O)C3=C(CCCC3)C2=O)c(F)cc1Cl

Row | Structure (SMILES) | melting point
39 | OCC1CN(Cc2ccccc2)CCN1Cc1ccccc1 (stereo not given) | 77 °C
40 | CCCN(SCNC(=O)ON=C(C)SC)P(=S)(OCC)OCC | 68 to 69 °C
